According to the NIST ThermoML archive (doi:10.1016/j.jct.2016.03.026):
Where “and” joins values, the source holds several entries; their conditions need not be identical. Equal entries are not always repeated.

Assay: xn = mol fraction of the nth substance listed
Conditions: Fluid (supercritical or subcritical phases), Frequency=5 MHz, Pulse-echo method

O=C=O [carbon dioxide] + CO
Conditions	speed of sound
298.13 K, 40050 kPa, x1 = 0.7534	817.8 m/s
298.13 K, 44960 kPa, x1 = 0.925	802 m/s
298.13 K, 44980 kPa, x1 = 0.925	802.5 m/s
298.13 K, 45000 kPa, x1 = 0.8502	812.9 m/s
298.13 K, 45000 kPa, x1 = 0.925	803.5 m/s
298.13 K, 45020 kPa, x1 = 0.7534	848.9 m/s
298.13 K, 45020 kPa, x1 = 0.925	803 m/s
298.13 K, 49980 kPa, x1 = 0.925	832.4 m/s and 833.5 m/s
298.13 K, 49990 kPa, x1 = 0.925	832.8 m/s
298.13 K, 50010 kPa, x1 = 0.925	833.6 m/s
298.13 K, 50070 kPa, x1 = 0.7534	878.2 m/s
298.13 K, 50080 kPa, x1 = 0.8502	843 m/s
298.13 K, 54890 kPa, x1 = 0.7534	904.5 m/s
298.13 K, 54910 kPa, x1 = 0.8502	869.9 m/s
298.13 K, 54940 kPa, x1 = 0.925	860.9 m/s
298.13 K, 54950 kPa, x1 = 0.925	860.2 m/s
298.13 K, 54970 kPa, x1 = 0.925	861.2 m/s
298.13 K, 55000 kPa, x1 = 0.925	860.7 m/s
298.13 K, 59950 kPa, x1 = 0.8502	896.4 m/s
298.13 K, 59970 kPa, x1 = 0.925	886.8 m/s
298.13 K, 60000 kPa, x1 = 0.925	887 m/s
298.13 K, 60010 kPa, x1 = 0.925	887.7 m/s
298.13 K, 60020 kPa, x1 = 0.925	887.7 m/s
298.13 K, 60230 kPa, x1 = 0.7534	932.1 m/s
298.13 K, 64680 kPa, x1 = 0.7534	953.8 m/s
298.13 K, 64950 kPa, x1 = 0.925	912 m/s
298.13 K, 64960 kPa, x1 = 0.925	911.8 m/s
298.13 K, 64990 kPa, x1 = 0.925	912.4 m/s
298.13 K, 65010 kPa, x1 = 0.925	911.9 m/s
298.13 K, 65100 kPa, x1 = 0.8502	922 m/s
298.13 K, 69930 kPa, x1 = 0.8502	944.8 m/s
298.13 K, 69960 kPa, x1 = 0.925	935.2 m/s
298.13 K, 69970 kPa, x1 = 0.925	935.8 m/s
298.13 K, 69980 kPa, x1 = 0.925	935.3 m/s
298.13 K, 70000 kPa, x1 = 0.925	936 m/s
298.13 K, 70030 kPa, x1 = 0.7534	978.8 m/s
298.13 K, 74960 kPa, x1 = 0.925	957.7 m/s
298.13 K, 74970 kPa, x1 = 0.925	957.9 m/s and 958.4 m/s
298.13 K, 75000 kPa, x1 = 0.925	958.5 m/s
298.13 K, 75120 kPa, x1 = 0.8502	968.2 m/s
298.13 K, 75550 kPa, x1 = 0.7534	1003.2 m/s
298.13 K, 79950 kPa, x1 = 0.925	979.9 m/s
298.13 K, 79970 kPa, x1 = 0.925	979.7 m/s
298.13 K, 79990 kPa, x1 = 0.8502	989 m/s
298.13 K, 79990 kPa, x1 = 0.925	979.4 m/s
298.13 K, 80530 kPa, x1 = 0.7534	1024.4 m/s
298.13 K, 89880 kPa, x1 = 0.8502	1029.2 m/s
298.13 K, 89960 kPa, x1 = 0.925	1019.7 m/s
298.13 K, 89980 kPa, x1 = 0.925	1020.4 m/s
298.13 K, 90000 kPa, x1 = 0.925	1020 m/s and 1020.4 m/s
298.13 K, 90430 kPa, x1 = 0.7534	1064.1 m/s
298.13 K, 99830 kPa, x1 = 0.7534	1098.9 m/s
298.13 K, 99970 kPa, x1 = 0.925	1057.9 m/s
298.13 K, 99990 kPa, x1 = 0.925	1057.5 m/s
298.13 K, 100010 kPa, x1 = 0.8502	1067.3 m/s
298.13 K, 100010 kPa, x1 = 0.925	1057.5 m/s
298.13 K, 100040 kPa, x1 = 0.925	1057.3 m/s
298.13 K, 109890 kPa, x1 = 0.8502	1102.7 m/s
298.13 K, 109950 kPa, x1 = 0.925	1092.7 m/s
298.13 K, 109980 kPa, x1 = 0.925	1093.2 m/s
298.13 K, 109990 kPa, x1 = 0.925	1092.8 m/s and 1093.2 m/s
298.13 K, 110320 kPa, x1 = 0.7534	1136.1 m/s
298.13 K, 119500 kPa, x1 = 0.8502	1135.1 m/s
298.13 K, 119930 kPa, x1 = 0.925	1126 m/s
298.13 K, 119960 kPa, x1 = 0.925	1126.1 m/s
298.13 K, 119990 kPa, x1 = 0.925	1125.8 m/s
298.13 K, 120000 kPa, x1 = 0.925	1126 m/s
298.13 K, 120120 kPa, x1 = 0.7534	1168.5 m/s
298.13 K, 129960 kPa, x1 = 0.925	1157.1 m/s
298.13 K, 129970 kPa, x1 = 0.925	1157.2 m/s and 1157.6 m/s
298.13 K, 130000 kPa, x1 = 0.925	1157.5 m/s
298.13 K, 139110 kPa, x1 = 0.7534	1226.8 m/s
298.13 K, 139980 kPa, x1 = 0.925	1186.8 m/s and 1187.3 m/s
298.13 K, 139990 kPa, x1 = 0.925	1187.1 m/s
298.13 K, 140030 kPa, x1 = 0.925	1187.4 m/s
298.13 K, 140060 kPa, x1 = 0.8502	1198.2 m/s
298.13 K, 149950 kPa, x1 = 0.925	1215.3 m/s and 1215.7 m/s
298.13 K, 149960 kPa, x1 = 0.925	1215.5 m/s
298.13 K, 149990 kPa, x1 = 0.925	1215.1 m/s
298.13 K, 159590 kPa, x1 = 0.7534	1284.3 m/s
298.13 K, 159960 kPa, x1 = 0.925	1242.8 m/s
298.13 K, 159970 kPa, x1 = 0.925	1242.8 m/s
298.13 K, 159980 kPa, x1 = 0.925	1242.2 m/s
298.13 K, 159990 kPa, x1 = 0.925	1242.6 m/s
298.13 K, 160550 kPa, x1 = 0.8502	1255.2 m/s
298.13 K, 169970 kPa, x1 = 0.925	1268.9 m/s
298.13 K, 169980 kPa, x1 = 0.925	1268.9 m/s
298.13 K, 169990 kPa, x1 = 0.925	1268.1 m/s
298.13 K, 170010 kPa, x1 = 0.925	1268.7 m/s
298.13 K, 178270 kPa, x1 = 0.8502	1301.3 m/s
298.13 K, 179990 kPa, x1 = 0.925	1293.2 m/s
298.13 K, 180020 kPa, x1 = 0.925	1293.8 m/s and 1294 m/s
298.13 K, 180060 kPa, x1 = 0.925	1294.1 m/s
298.13 K, 180370 kPa, x1 = 0.7534	1338.1 m/s
298.13 K, 189940 kPa, x1 = 0.925	1316.8 m/s
298.13 K, 189950 kPa, x1 = 0.925	1317.9 m/s
298.13 K, 189970 kPa, x1 = 0.925	1317.8 m/s
298.13 K, 190010 kPa, x1 = 0.925	1317.9 m/s
298.14 K, 44940 kPa, x1 = 0.9803	798 m/s
298.14 K, 50050 kPa, x1 = 0.9803	829.6 m/s
298.14 K, 54980 kPa, x1 = 0.9803	857.8 m/s
298.14 K, 60140 kPa, x1 = 0.9803	885.4 m/s
298.14 K, 64990 kPa, x1 = 0.9803	909.9 m/s
298.14 K, 70210 kPa, x1 = 0.9803	935 m/s
298.14 K, 75300 kPa, x1 = 0.9803	958.1 m/s
298.14 K, 80240 kPa, x1 = 0.9803	979.6 m/s
298.14 K, 89800 kPa, x1 = 0.9803	1018.7 m/s
298.14 K, 100450 kPa, x1 = 0.9803	1059.1 m/s
298.14 K, 109890 kPa, x1 = 0.9803	1092.5 m/s
298.14 K, 120160 kPa, x1 = 0.9803	1126.5 m/s
298.14 K, 130400 kPa, x1 = 0.9803	1158.4 m/s
298.14 K, 139810 kPa, x1 = 0.9803	1185.8 m/s
298.14 K, 150170 kPa, x1 = 0.9803	1215.7 m/s
298.14 K, 160470 kPa, x1 = 0.9803	1243.6 m/s
304.19 K, 24950 kPa, x1 = 0.97	621 m/s
304.19 K, 29960 kPa, x1 = 0.97	668.7 m/s
304.19 K, 34880 kPa, x1 = 0.97	709.6 m/s
304.19 K, 39930 kPa, x1 = 0.97	747.2 m/s
304.19 K, 44970 kPa, x1 = 0.97	781.3 m/s
304.19 K, 50020 kPa, x1 = 0.97	812.8 m/s
304.19 K, 54970 kPa, x1 = 0.97	841.5 m/s
304.19 K, 59970 kPa, x1 = 0.97	868.6 m/s
